Patent US10022328B2, “Dialkyl sulfosuccinate compositions, method of making, and method of use” (CYTEC INDUSTRIES INC., priority 2015, dated 2018)

Experiment: Contact angle of excipient solution in 0.1 M HCl with API pellet (sessile drop)
Type: physicochemical
Conditions: 0.1% excipient in 0.1 M HCl, 10-μL drops on pressed API pellet
Text: A factor which contributes to the bioavailability of active pharmaceutical ingredients (API's) is the wetting of the API by an aqueous solution at a physiological pH. Wetting can affect dissolution rates of the API in the aqueous solution. Wetting can be assessed by measuring the contact angle between an aqueous solution and an API. In these examples, the sessile drop method was used to determine contact angles. Pellets of API were produced using an X-press 3630 with a 35-mm pressing die. The API was pressed into a 35-mm diameter aluminum pan using the standard 30-ton cycle in order to produce a flat surface. Drops (10-μL) of a 0.1% test solution of an excipient were used. The test solution was 0.1 M HCl, to simulate physiological conditions in the human stomach.

Compound	Contact Angle with Fenofibrate	Contact Angle with Glipizide	Contact Angle with Ibuprofen	Contact Angle with Naproxen	Contact Angle with Ritonavir
Polyoxyethylene (20) sorbitan monolaurate [TWEEN ™ 20]	58 °	42 °	45 °	48 °	40 °
Polyoxyethylene (20) sorbitan monooleate [TWEEN ™ 80]	70 °	55 °	68 °	52 °	51 °
CCCCCCCCCCCCOS(=O)(=O)[O-].[Na+] [SLS, Sodium lauryl sulfate]	47 °	43 °	54 °	34 °	57 °
